In patent EP0949238A1, “SUBSTITUTED PROPIONYL DERIVATIVES” (DAIICHI PHARMACEUTICAL CO., LTD., priority 1996, dated 1998):
pIC50: −log10 of the molar value.

Key:
rat liver cells = assay: Cholesterol synthesis inhibitory activity in rat liver cells ([14C]-acetic acid uptake in cholesterol); assay type: cell-based; conditions: concentration inhibiting 50% of [14C] acetic acid radioactivity uptake into cholesterol; SD rat liver cells; read-out: Cholesterol synthesis inhibitory action in rat liver cells IC50 (10^-6M)
Description: Liver cells were isolated from rat livers by the in situ collagenase perfusion method. Described specifically, a 6-week-old male SD rat was intraperitoneally administered with a 50 mg/ml pentobarbital sodium solution and thereby anesthetized. After ventrotomy and cannulation from the portal vein, the rat was sacrificed under exsanguination by the excision of the lower large vein. From the cannula, a Hanks solution (pH 7.2) containing 2% albumin, 0.5 mM ethyleneglycolbis(2-aminoethylether) tetraacetate (EGTA) and 10 mM HEPES and being free from a divalent calcium ion and a divalent magnesium ion was subjected to perfusion (flow rate: 0.5 ml/sec) for 5 minutes. The Hanks solution was then changed to another Hanks solution (pH 7.5) having 0.05% collagenase, 4 mM calcium chloride and 10 mM HEPES added thereto and perfusion was continued for further 15 to 20 minutes. After confirmation of the sufficient digestion by collagenase, the liver tissue was placed on a Petri dish, 30 ml of a Dulbeco's modified Eagle's (DEM) medium was added thereto and cells were dispersed by drawing through suction. A cell filter was employed to remove the undigested tissue. The resulting cell suspension was subjected to centrifugal separation at 600 rpm for 1 minute. A 30 ml of DME medium was added to the sediment to disperse the cells, followed by centrifugal separation at 600 rpm for 1 minute. After these washing procedures by centrifugation were repeated three times in total, the liver cell suspension was suspended in a DME medium containing 10% of lipoprotein deficient serum (LPDS). The resulting suspension was seeded on a commercially-available 6-well plate coated with collagen at a cell density of 1 x 10^6 cells per well, followed by incubation overnight in a CO2 incubator (5% CO2 gas, 37°C).
The uptake of [^14C]-acetic acid radioactivity in cholesterol was measured using the liver cells prepared in the above-described manner and the cholesterol synthesis inhibitory activity of the test medicament was evaluated.
Described specifically, the cell culture medium of the liver cells was replaced by a 25 mM HEPES-10% LPDS-DME medium (pH 7.4) containing the test medicament, followed by incubation for one hour in a CO2 incubator. Then, [^14C] sodium acetate was added to give the final concentration of 1 µCi/ml. After incubation for further one hour in the CO2 incubator, the cell culture medium was removed. The cells were washed three times with a phosphate buffered saline (pH 7.2) and then dissolved in 1 ml of a 0.1N aqueous sodium hydroxide solution. […] To the vial, 10 ml of Aquasol 2 was added and ^14C and ^3H radioactivities were counted by a liquid scintillation counter.
The cholesterol synthesis inhibitory activity of the test medicament was calculated in the below-described procedures. […]

squalene synthetase = target: T1, squalene synthetase (Homo sapiens, UniProt P37268); assay: Squalene synthetase inhibitory activity (HepG2 cell microsome fraction, [3H]farnesyl pyrophosphate incorporation into squalene); assay type: biochemical; conditions: HepG2 cell microsome preparation, 5 µM [3H]farnesyl pyrophosphate, 37°C for 20 minutes
T1 construct: 0.01 to 0.1 µg of the HepG2 cell microsome preparation; endogenous in cells; host or cells: HepG2 cells (microsome fraction)
T1 sequence (P37268 1-417): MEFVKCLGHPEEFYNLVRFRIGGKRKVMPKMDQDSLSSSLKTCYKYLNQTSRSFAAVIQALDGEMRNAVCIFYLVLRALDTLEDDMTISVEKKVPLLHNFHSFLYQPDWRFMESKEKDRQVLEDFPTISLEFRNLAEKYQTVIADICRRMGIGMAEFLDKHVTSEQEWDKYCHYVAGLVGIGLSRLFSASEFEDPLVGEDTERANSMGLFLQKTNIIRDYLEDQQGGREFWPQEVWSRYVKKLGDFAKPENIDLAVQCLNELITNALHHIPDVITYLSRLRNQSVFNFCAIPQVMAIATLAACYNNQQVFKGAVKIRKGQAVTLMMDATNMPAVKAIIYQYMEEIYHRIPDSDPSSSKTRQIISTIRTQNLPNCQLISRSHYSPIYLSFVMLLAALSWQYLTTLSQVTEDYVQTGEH
Description: As an enzyme source to measure squalane synthetase activity, we prepared a microsome fraction from a human hepatoma-derived cell line, HepG2 cells, according to the method described by Schechter et al. (Journal of Biological Chemistry, Vol. 267, pp.8628-8635, 1992).
Described specifically, HepG2 cells were first homogenized in the presence of a 10 mM N-2-hydroxyethylpiperazin-N'-2-ethanesulfonate (HEPES) buffer containing 0.3M sucrose, 1 mM dithiothreitol (DTT), 1 mM sodium ethylenediaminetetraacetate (EDT) and various protease inhibitors and adjusted to pH 7.4. The resulting mixture was subjected to centrifugal separation at 2,000 x g for 5 minutes and then 10,000 x g for 15 minutes. The protease inhibitors employed were phenylmethanesulfonyl fluoride (PMSF), leupeptin and aprotinin, which were added to give the final concentration of 1 mM, 10 µM and 5 µg/ml, respectively. The supernatant after centrifugation was centrifuged further at 105,000 xg for 60 minutes. The precipitate thus obtained was suspended in a 20 mM phosphate buffer (pH 7.4) containing 1 mM DTT, 1 mM EDTA and the above-described protease inhibitors and the resulting suspension was washed twice by centrifugation at 105,000 x g for 30 minutes. The precipitate was then suspended in a 20 mM phosphate buffer (pH 7.4) containing 1 mM DTT and 1 mM EDTA and the resulting suspension was similarly centrifuged. […]

pIC50 (rat liver cells)	pIC50 (squalene synthetase)	Structure (SMILES)
6.82	9.52	O=C(O)CO[C@@H](C(=O)O)[C@@H](OCCCCCc1ccc2ccccc2c1)C(=O)NCCCCCc1ccc2ccccc2c1 [Example 1, (2R,3R)-2-Carboxymethoxy-3-[N-[5-(2-naphthyl)pentyl]carbamoyl]-3-[5-(2-naphthyl)pentyloxy]propionic acid]
6.49	–	C[C@H](NC(=O)C[C@@H](CC(=O)O)C(=O)O)[C@@H](Cc1ccc(Cl)c(Cl)c1)OC(=O)c1ccc2ccccc2c1 [Compound A, (2S)-2-[N-{(1S,2R)-3-(3,4-dichlorophenyl)-1-methyl-2-(2-naphthoyloxy)propyl}carbamoylmethyl] succinic acid, reference compound]
6.41	–	CC(C)(C)CN1C(=O)[C@@H](CC(=O)NCC(=O)O)O[C@H](c2ccccc2Cl)c2cc(Cl)ccc21 [Compound B, N-[(3R,5S)-7-chloro-5-(2-chlorophenyl)-1-neopentyl-2-oxo-1,2,3,5-tetrahydro-4,1-benzoxazepin-3-acetyl] aminoacetic acid, reference compound]

Structure (SMILES)	pIC50 (rat liver cells)	pIC50 (squalene synthetase)
CN(CCCCCc1ccc2ccccc2c1)C(=O)[C@H](OCCCCNc1ccc2c(c1)CCC2)[C@@H](OCC(=O)O)C(=O)O [Example 48, (2R,3R)-2-Carboxymethoxy-3-[4-(5-indanylamino)butoxy]-3-[N-methyl-N-[5-(2-naphthyl)pentyl]carbamoyl]propionic acid]	7.72	–
